Reference: patent publication US20220389003A1, “4-SUBSTITUTED INDOLE AND INDAZOLE SULFONAMIDO DERIVATIVES AS PARG INHIBITORS” (IDEAYA BIOSCIENCES, INC., priority 2019, published 2022)
Where two headings read alike, the source gives them in different places.

How the values were obtained:
[1] = tested on: HCC1806-XRCC1 KD (knock down) cells; assay: Cellular viability assay (Cell Titer-Glo); format: cell-based; details: HCC1806-shXRCC1 cells, 4 days of incubation, read-out: PARGi cell viability
Method: HCC1806-XRCC1 KD (knock down) cells were plated at 2000 cells/well in 96-well white plates with clear flat bottom. After 24 hours, the compounds of the disclosure were added starting at 30 μM for a 9-point dose response curve at 1:3 dilution. The compounds of the disclosure were added by Tecan digital dispenser excluding the outermost wells of the plate. All treatments were done in duplicates. After 4 days of incubation, 50 ul of Cell Titer-Glo (Promega) was added per well. After incubation with the reagent for 15 minutes, luminescence was read using a plate reader (TECAN). Average values of DMSO treated wells in a plate was calculated. All data points were normalized to that of the average DMSO value. The % of control for each sample compared to DMSO treated control samples. Curves are fit as % of control vs. log [compound concentration] using a 4 parameter inhibition model (Levenberg-Marquardt algorithm):
Fit=(A+((B−A)/(1+((C/x)^D))))

PARG [2] = biological target: T1, PARG (Homo sapiens, UniProt Q86W56); assay: Inhibition of PARG enzymatic assay (TR-FRET enzymatic IC50 assay); format: biochemical; parameters: purchased Peak Proteins; details: hPARG 250 pM, biotinylated-PARylated PARP substrate 30 nM
Method: PARG enzyme was incubated with compound or vehicle (DMSO) and the biotinylated-PARylated PARP substrate in a microtiter plate. After adding detection antibody and streptavidin-europium, and then incubating, the plate was read for fluorescence intensity. The low control (DMSO) with low fluorescence intensity represents no inhibition of enzymatic reaction while the high control (no enzyme) with high fluorescence intensity represents full inhibition of enzymatic reaction.
• PARG • hPARG: 250 pM, His-tagged, Peak Proteins, 0.96 mg/mL (8.58 μM) • Substrate: 30 nM • Reaction time: 70 minutes • Substrate: hPARP1, His- and TEV-tagged, Peak Proteins, 14 μM • Detection Antibody: anti-His monoclonal antibody-ULight, Perkin Elmer catalog #TRF0105-M • Streptavidin-Europium: Perkin Elmer catalog #AD0062 • Assay buffer: 50 mM Tris-HCl pH 7.4, 50 mM KCl, 3 mM EDTA, 0.4 mM EGTA, 1 mM DTT, 0.01% Tween 20, 0.01% BSA • Temperature: 23° C. • Total volume: 20 μL
• 0% inhibition control: DMSO • 100% inhibition control: No enzyme
• 1. Transfer 5 μL of 3× final concentration of test compounds or DMSO to the appropriate wells of a microtiter plate. • 2. Centrifuge the plate at 1000 rpm for 1 minute. • 3. Transfer 5 μL of 3× final concentration of enzyme in assay buffer or assay buffer alone to the appropriate wells. • 4. Centrifuge the plate at 1000 rpm for 1 minute. • 5. Incubate the plate at room temperature for 1 hour. • 6. Transfer 5 μL of 3× substrate in assay buffer to all the test wells. • 7. Centrifuge the plate at 1000 rpm for 1 minute. • 8. Incubate the plate at room temperature for 10 minutes. • 9. Transfer 5 μL of 3× mixture of detection antibody and streptavidin-europium in assay buffer to all the test wells. • 10. Centrifuge the plate at 1000 rpm for 1 minute. • 11. Incubate the plate at room temperature for 1 hour. • 12. Read the plate on a plate reader (e.g., Infinite M1000).

PARG [3] = biological target: T1, PARG; assay: Inhibition of PARG cellular assay (PAR foci in HeLa cells after MMS); format: cell-based; parameters: endogenous in cells; host or cells: HeLa; details: compound 1 h then MMS 1 h
Method: The ability of the compounds disclosed herein to inhibit PARG was determined as described below. Briefly, after treating HeLa cells with the compounds of the disclosure for 1 h, followed by treatment with DNA alkylating agent methylmethanesulfonate (MMS) for an additional 1 h, the cells were fixed in 3.7% formaldehyde. The cells were permeabilized in 0.5% Triton-X100, blocked in 5% goat serum, and incubated with mouse monoclonal antibody against poly (ADP) ribose (PAR) polymer overnight at 4° C. The cells were washed and incubated with an Alexafluor 488-linked secondary antibody together with a nuclear stain (Hoechst 33342) for an hour at room temperature. After washing, images of the cells were captured and analyzed on a high content imaging microscope and software. Two measurement of PAR chain were quantified with the mean intensity over background of the nuclear foci (fluorescent signal at 488 nm range 0.3-2.0 μm foci) quantified as PAR foci (PAR Foci IC50). The cells with a PAR foci signal >1.3 was considered as positive (PAR % positive IC50), and the percentage positive cells are quantified.

T1 sequence (Q86W56 whole entry): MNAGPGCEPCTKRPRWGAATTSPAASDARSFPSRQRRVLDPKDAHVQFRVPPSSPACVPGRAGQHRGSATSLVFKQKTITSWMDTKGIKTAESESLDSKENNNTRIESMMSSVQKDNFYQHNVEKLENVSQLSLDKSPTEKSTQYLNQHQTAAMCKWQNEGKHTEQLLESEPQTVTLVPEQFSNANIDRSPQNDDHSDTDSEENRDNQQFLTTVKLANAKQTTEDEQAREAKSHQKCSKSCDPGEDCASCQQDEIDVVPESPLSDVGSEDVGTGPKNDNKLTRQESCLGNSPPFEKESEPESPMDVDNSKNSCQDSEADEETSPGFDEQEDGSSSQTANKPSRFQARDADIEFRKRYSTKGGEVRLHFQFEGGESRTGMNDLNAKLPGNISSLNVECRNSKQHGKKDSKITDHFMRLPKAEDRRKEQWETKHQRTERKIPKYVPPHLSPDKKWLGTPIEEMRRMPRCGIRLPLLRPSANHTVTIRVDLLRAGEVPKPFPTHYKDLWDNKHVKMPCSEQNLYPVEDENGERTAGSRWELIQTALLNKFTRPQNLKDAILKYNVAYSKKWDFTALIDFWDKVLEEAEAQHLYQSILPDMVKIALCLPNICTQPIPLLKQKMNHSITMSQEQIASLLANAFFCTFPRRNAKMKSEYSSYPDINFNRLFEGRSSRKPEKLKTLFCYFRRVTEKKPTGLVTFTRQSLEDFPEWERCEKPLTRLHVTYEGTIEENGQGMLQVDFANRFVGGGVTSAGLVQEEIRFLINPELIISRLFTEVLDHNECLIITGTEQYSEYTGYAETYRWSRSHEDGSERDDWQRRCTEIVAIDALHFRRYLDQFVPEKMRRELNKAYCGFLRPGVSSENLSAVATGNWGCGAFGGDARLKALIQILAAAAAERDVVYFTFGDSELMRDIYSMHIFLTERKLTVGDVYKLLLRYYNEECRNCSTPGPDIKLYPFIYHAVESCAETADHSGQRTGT

## CN1CC2CN(c3cc(S(=O)(=O)NC4(C#N)CC4)cc4c3cnn4-c3nnc(C(F)F)s3)CCN2C1=O (single isomer, unassigned) [Example 71, 1-[({4-(8-methyl-7-oxo-3,6,8-triazabicyclo[4.3.0]non-3-yl)-1-[5-(difluoromethyl)-(1,3,4-thiadiazol-2-yl)]-1H-indazol-6-yl}sulfonyl)amino]cyclopropane carbonitrile]
[1]; 96 h
  IC50: 1 to 10 µM
PARG [2]
  IC50: ≤ 0.1 µM
PARG [3]
  IC50: 0.1 to 0.3 µM

## CN1CC2CN(c3cc(S(=O)(=O)NC4(C#N)CC4)cc4c3cnn4-c3nnc(C(F)F)s3)CCN2C1=O (single isomer, unassigned) [Example 72, 1-[({4-(8-methyl-7-oxo-3,6,8-triazabicyclo[4.3.0]non-3-yl)-1-[5-(difluoromethyl)-(1,3,4-thiadiazol-2-yl)]-1H-indazol-6-yl}sulfonyl)amino]cyclopropane carbonitrile]
[1]
  IC50: 1 to 10 µM
PARG [2]
  IC50: ≤ 0.1 µM
PARG [3]
  IC50: 0.1 to 0.3 µM

## N#CC1(NS(=O)(=O)c2cc(-c3ccccc3)c3cnn(-c4nnc(C(F)F)s4)c3c2)CC1 [Example 1, 1-[({1-[5-(difluoromethyl)(1,3,4-thiadiazol-2-yl)]-4-phenyl-1H-indazol-6-yl}sulfonyl)amino]cyclopropanecarbonitrile]
[1]; 96 h
  IC50: 20 to 30 µM
PARG [2]
  IC50: 1 to 10 µM
PARG [3]
  IC50: 1 to 10 µM

## Cn1cc(-c2cc(S(=O)(=O)NC3(C#N)CC3)cc3c2cnn3-c2nnc(C(F)F)s2)ccc1=O [Example 5, N-(1-cyanocyclopropyl)-1-(5-(difluoromethyl)-1,3,4-thiadiazol-2-yl)-4-(1-methyl-6-oxo-1,6-dihydropyridin-3-yl)-1H-indazole-6-sulfonamide]
[1]; 96 h
  IC50: 20 to 30 µM
PARG [2]
  IC50: ≤ 0.1 µM
PARG [3]
  IC50: 0.3 to 1 µM

## N#CC1(NS(=O)(=O)c2cc(C3CC3)c3cnn(-c4nnc(C(F)F)s4)c3c2)CC1 [Example 6, 1-[({1-[5-(difluoromethyl)(1,3,4-thiadiazol-2-yl)]-4-cyclopropyl-1H-indazol-6-yl}sulfonyl)amino]cyclopropanecarbonitrile]
[1]; 96 h
  IC50: 20 to 30 µM
PARG [2]
  IC50: 1 to 10 µM
PARG [3]
  IC50: 1 to 10 µM

## N#CC1(NS(=O)(=O)c2cc(C3=CCC4(CC3)COC4)c3cnn(-c4nnc(C(F)F)s4)c3c2)CC1 [Example 7, 1-[({1-[5-(difluoromethyl)(1,3,4-thiadiazol-2-yl)]-4-(2-oxaspiro[3.5]non-6-en-7-yl)-1H-indazol-6-yl}sulfonyl)amino]cyclopropanecarbonitrile]
[1]; 96 h
  IC50: 1 to 10 µM
PARG [2]
  IC50: 0.3 to 1 µM
PARG [3]
  IC50: 0.3 to 1 µM

## N#CC1(NS(=O)(=O)c2cc(C3CCC4(CC3)COC4)c3cnn(-c4nnc(C(F)F)s4)c3c2)CC1 [Example 8, 1-[({1-[5-(difluoromethyl)(1,3,4-thiadiazol-2-yl)]-4-(2-oxaspiro[3.5]non-7-yl)-1H-indazol-6-yl}sulfonyl)amino]cyclopropanecarbonitrile]
[1]; 96 h
  IC50: 1 to 10 µM
PARG [2]
  IC50: 0.1 to 0.3 µM
PARG [3]
  IC50: ≤ 0.1 µM

## N#CC1(NS(=O)(=O)c2cc(-c3ccccn3)c3cnn(-c4nnc(C(F)F)s4)c3c2)CC1 [Example 14, 1-[({1-[5-(difluoromethyl)(1,3,4-thiadiazol-2-yl)]-4-(2-pyridyl)-1H-indazol-6-yl}sulfonyl)amino]cyclopropanecarbonitrile]
[1]; 96 h
  IC50: 10 to 20 µM
PARG [2]
  IC50: 0.3 to 1 µM
PARG [3]
  IC50: 1 to 10 µM

## N#CC1(NS(=O)(=O)c2cc(-c3ccncn3)c3cnn(-c4nnc(C(F)F)s4)c3c2)CC1 [Example 15, 1-[({1-[5-(difluoromethyl)(1,3,4-thiadiazol-2-yl)]-4-pyrimidin-4-yl-1H-indazol-6-yl}sulfonyl)amino]cyclopropanecarbonitrile]
[1]; 96 h
  IC50: 1 to 10 µM
PARG [2]
  IC50: ≤ 0.1 µM
PARG [3]
  IC50: 0.3 to 1 µM

## COc1nccc(-c2cc(S(=O)(=O)NC3(C#N)CC3)cc3c2cnn3-c2nnc(C(F)F)s2)n1 [Example 21, 1-[({1-[5-(difluoromethyl)(1,3,4-thiadiazol-2-yl)]-4-(2-methoxypyrimidin-4-yl)-1H-indazol-6-yl}sulfonyl)amino]cyclopropanecarbonitrile]
[1]; 96 h
  IC50: 1 to 10 µM
PARG [2]
  IC50: 0.1 to 0.3 µM
PARG [3]
  IC50: 0.3 to 1 µM

## CC1(NS(=O)(=O)c2cc(N3CCC4(CC3)COC4)c3cnn(-c4nnc(C(F)F)s4)c3c2)CC1 [Example 23, ({1-[5-(difluoromethyl)(1,3,4-thiadiazol-2-yl)]-4-(2-oxa-7-azaspiro[3.5]non-7-yl)(1H-indazol-6-yl)}sulfonyl)(methylcyclopropyl)amine]
[1]; 96 h
  IC50: < 1 µM
PARG [2]
  IC50: ≤ 0.1 µM
PARG [3]
  IC50: ≤ 0.1 µM

## CN(C)C(=O)N1CCN(c2cc(S(=O)(=O)NC3(C)CC3)cc3c2cnn3-c2nnc(C(F)F)s2)CC1 [Example 24, [4-(1-[5-(difluoromethyl)(1,3,4-thiadiazol-2-yl)]-6-{[(methylcyclopropyl)amino]sulfonyl}(1H-indazol-4-yl))piperazinyl]-N,N-dimethylcarboxamide]
[1]; 96 h
  IC50: < 1 µM
PARG [2]
  IC50: ≤ 0.1 µM
PARG [3]
  IC50: ≤ 0.1 µM

## N#CC1(NS(=O)(=O)c2cc(N3CCC4(CC3)COC4)c3cnn(-c4nnc(C(F)F)s4)c3c2)CC1 [Example 25, 1-[({1-[5-(difluoromethyl)(1,3,4-thiadiazol-2-yl)]-4-(2-oxa-7-azaspiro[3.5]non-7-yl)-1H-indazol-6-yl}sulfonyl)amino]cyclopropanecarbonitrile]
[1]; 96 h
  IC50: < 1 µM
PARG [2]
  IC50: ≤ 0.1 µM
PARG [3]
  IC50: ≤ 0.1 µM

## C[C@@H]1CN(c2cc(S(=O)(=O)NC3(C#N)CC3)cc3c2cnn3-c2nnc(C(F)F)s2)CCO1 [Example 26, 1-[({4-((2R)-2-methylmorpholin-4-yl)-1-[5-(difluoromethyl)(1,3,4-thiadiazol-2-yl)]-1H-indazol-6-yl}sulfonyl)amino]cyclopropanecarbonitrile]
[1]; 96 h
  IC50: 1 to 10 µM
PARG [2]
  IC50: ≤ 0.1 µM
PARG [3]
  IC50: 0.1 to 0.3 µM

## CC(C)C(=O)N1[C@@H]2CC[C@H]1CN(c1cc(S(=O)(=O)NC3(C#N)CC3)cc3c1cnn3-c1nnc(C(F)F)s1)C2 [Example 37, 1-[({4-[(1S,5R)-8-(2-methylpropanoyl)-3,8-diazabicyclo[3.2.1]oct-3-yl]-1-[5-(difluoromethyl)(1,3,4-thiadiazol-2-yl)]-1H-indazol-6-yl}sulfonyl)amino]cyclopropane carbonitrile]
[1]; 96 h
  IC50: 1 to 10 µM
PARG [3]
  IC50: ≤ 0.1 µM

## N#CC1(NS(=O)(=O)c2cc(N3CCN(C=O)CC3)c3cnn(-c4nnc(C(F)F)s4)c3c2)CC1 [Example 49, 1-[({1-[5-(difluoromethyl)(1,3,4-thiadiazol-2-yl)]-4-(4-formylpiperazinyl)-1H-indazol-6-yl}sulfonyl)amino]cyclopropanecarbonitrile]
[1]; 96 h
  IC50: 1 to 10 µM
PARG [3]
  IC50: 0.3 to 1 µM

## N#CC1(NS(=O)(=O)c2cc(N3CCN(C(=O)C4CCC4)CC3)c3cnn(-c4nnc(C(F)F)s4)c3c2)CC1 [Example 81, 1-[({1-[5-(difluoromethyl)(1,3,4-thiadiazol-2-yl)]-4-[4-(cyclobutylcarbonyl)piperazinyl]-1H-indazol-6-yl}sulfonyl)amino]cyclopropanecarbonitrile]
[1]; 96 h
  IC50: < 1 µM
PARG [3]
  IC50: ≤ 0.1 µM
